We go through 27 molecules from patent US12384753B2, “17-beta-hydroxysteroid dehydrogenase type 13 inhibitors and methods of use thereof” (Enanta Pharmaceuticals, Inc., priority 2021, dated 2025).

Chain of Recombinant human HSD17B13 (Q7Z5P4 20-300): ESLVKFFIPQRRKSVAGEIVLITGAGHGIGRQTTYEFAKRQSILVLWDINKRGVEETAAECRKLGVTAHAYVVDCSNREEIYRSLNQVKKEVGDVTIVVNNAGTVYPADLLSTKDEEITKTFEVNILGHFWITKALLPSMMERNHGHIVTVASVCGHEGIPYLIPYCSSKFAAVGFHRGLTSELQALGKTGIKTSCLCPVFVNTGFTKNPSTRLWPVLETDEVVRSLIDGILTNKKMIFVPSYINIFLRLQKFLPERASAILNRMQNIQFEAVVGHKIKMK

The experiment has as its target Recombinant human HSD17B13 (Homo sapiens (Human), UniProt Q7Z5P4). Briefly: HSD17B13 rapid-fire mass spectrometry assay (RF/MS assay). The format is biochemical. The settings on record: inhibition of HSD17B13; LTB4 10 μM, NAD+ 0.5 mM, RT 3 h; IC50 ranges A-E. An excerpt:
HSD17B13 rapid-fire mass spectrometry assay (RF/MS assay). Recombinant human HSD17B13 was expressed and purified from sf9 cells at Charles River Labs (Saffron Walden, UK). Leukotriene B4 (Catalog #71160-24-2) and 12-oxoleukotriene B4 (Catalog #20140) were purchased from Cayman Chemicals (Ann Arbor, Michigan.). NAD+ (Catalog #N8285), BSA (Catalog #A7030), DMSO (Catalog #D2650), and Tween-20 (Catalog #11332465001) were purchased from Sigma (St. Louis, MO). Formic acid (Catalog #28905) was from ThermoFisher Scientific and 384 deep well PP microplates (Catalog #784261) were from Greiner Bio-One. In a typical IC50 assay performed in a 384w PP microplate, test compounds (0-100 μM) were incubated with HSD17B13 (80 nM), LTB4 (10 μM), and NAD^+ (0.5 mM) in 10 μL assay buffer (20 mM Tris (pH 7.5), BSA (0.005%), and Tween-20 (0.01%)) at RT for 3 h. The assays were quenched by adding 20 μL of 0.15% aqueous formic acid and the plates were frozen at −80° C. RF/MS analysis was performed at PureHoney Technologies (Billerica, MA) on a RapidFire RF300 system (Agilent Technologies, Inc.) coupled to an API 4000 triple quadrupole mass spectrometer (Sciex) equipped with Agilent RapidFire cartridge type A (C4). The mobile phase was 0.09% formic acid and 0.01% trifluoracetic acid in water (Buffer A) and 0.09% formic acid and 0.01% trifluoracetic acid in 80% aqueous acetonitrile (Buffer B). The RapidFire method conditions were the following: 250 ms aspirate, 3000 ms load/desalt, 4000 ms elute, and 500 ms re-equilibrate. RF-MS/MS was performed in negative polarity (−4500 V), the source temperature was 650° C., and gas 1 and gas 2 settings for nitrogen were set to 50. The curtain gas and collision gas were also nitrogen and were set to 20 and 12, respectively. Leukotriene B4 (335.3) and 12-oxoLeukotriene B4 (333.3) SRM transitions were optimized with Discovery Quant software and extracted ion counts for these analytes were determined.
Data Analysis. HSD17B13 enzyme activity was measured as percent conversion of extracted ion counts and normalized to high and low controls to determine percent residual activity at various concentrations of test compounds. Data were fitted to normalized activity (variable slope) versus concentration fit in GraphPad Prism 7 to determine IC50. All experiments were run in duplicates.
By using above method, the inhibition of HSD17B13 was evaluated for the compounds of Formula (I). IC50 ranges are as follows: A=IC50<0.100 μM; B=0.100 μM<IC50<0.500 μM; C=0.500 μM<IC50<1 μM; D=1 μM<IC50<100 μM; E=IC50>100 μM
In the case of `Cc1sc(-c2ccc(F)cc2)nc1S(=O)(=O)Nc1ccc(C(=O)O)cc1` [Example 55, 4-((2-(4-fluorophenyl)-5-methylthiazole)-4-sulfonamido)benzoic acid], the IC50 was 1000 to 100000 nM. The value for `COc1ccc(-c2nc(S(=O)(=O)Nc3ccc(C(=O)O)cc3)cs2)cc1` [Example 56, 4-((2-(4-methoxyphenyl)thiazole)-4-sulfonamido)benzoic acid] was 500 to 1000 nM. The same measure for `O=C(O)c1ccc(NS(=O)(=O)c2csc(N3CCOCC3)n2)cc1` [Example 57, 4-((2-morpholinothiazole)-4-sulfonamido)benzoic acid]: 1000 to 100000 nM. The same measure for `O=C(O)c1ccc(NS(=O)(=O)c2csc(N3CCC(F)(F)CC3)n2)cc1` [Example 58]: 1000 to 100000 nM; for `COc1c(NS(=O)(=O)c2cnc(-c3ccc(F)cc3)s2)ccc(C(=O)O)c1F` [Example 59]: 100 to 500 nM; for `O=C(O)c1ccc(NS(=O)(=O)c2cnc(-c3ccc(F)cc3)s2)cc1` [Example 60, 4-((2-(4-fluorophenyl)thiazole)-5-sulfonamido)benzoic acid]: 500 to 1000 nM. For `O=C(O)c1cc(O)c(NS(=O)(=O)c2cnc(-c3ccc(F)cc3)s2)cc1F` [Example 61], the 50% inhibitory concentration (IC50) is < 100 nM. The same measure for `O=C(O)c1ccc(NS(=O)(=O)c2cnc(-c3ccc(F)cc3)s2)c(O)c1F` [Example 62]: < 100 nM; for `O=C(O)c1ccc(NS(=O)(=O)c2csc(-c3ccc(O)cc3)n2)cc1` [Example 63]: 500 to 1000 nM; for `O=C(O)C1CCN(S(=O)(=O)c2cnc(-c3ccc(F)cc3)s2)CC1` [Example 64]: 1000 to 100000 nM. The same measure for `O=C(O)C1CCCN(S(=O)(=O)c2cnc(-c3ccc(F)cc3)s2)C1` (stereo not drawn) [Example 65]: > 100000 nM. The same measure for `O=C(O)C1CCC(NS(=O)(=O)c2cnc(-c3ccc(F)cc3)s2)CC1` (stereo not drawn) [Example 66]: > 100000 nM.

`O=C(O)[C@H]1CC[C@H](NS(=O)(=O)c2cnc(-c3ccc(F)cc3)s2)CC1` [Example 67]: the concentration for half-maximal inhibition (IC50) was in the range of 1000 to 100000 nM. The same measure for `O=C(O)C12CC(NS(=O)(=O)c3cnc(-c4ccc(F)cc4)s3)(C1)C2` [Example 68]: > 100000 nM; for `COc1cc(C(=O)NO)ccc1NS(=O)(=O)c1cnc(-c2ccc(F)cc2)s1` [Example 69, 4-((2-(4-fluorophenyl)thiazole)-5-sulfonamido)-N-hydroxy-3-methoxybenzamide]: 1000 to 100000 nM; for `CONC(=O)c1ccc(NS(=O)(=O)c2cnc(-c3ccc(F)cc3)s2)c(OC)c1` [Example 70]: 1000 to 100000 nM.

`COc1cc(C(=O)N(C)O)ccc1NS(=O)(=O)c1cnc(-c2ccc(F)cc2)s1` [Example 71]: the half-maximal inhibitory concentration (IC50) lay in the range of 1000 to 100000 nM.

As for `COc1nc(C(=O)O)ccc1NS(=O)(=O)c1cnc(-c2ccc(F)cc2)s1` [Example 74], the IC50 is 1000 to 100000 nM. The same measure for `O=C(O)c1cc(NS(=O)(=O)c2cnc(-c3ccc(F)cc3)s2)cs1` [Example 75]: 1000 to 100000 nM; for `N#Cc1cc(C(=O)O)ccc1NS(=O)(=O)c1cnc(-c2ccc(F)cc2)s1` [Example 76]: 500 to 1000 nM; for `O=C(O)c1ccc(NS(=O)(=O)c2cnc(-c3ccc(F)cc3)s2)s1` [Example 77]: 1000 to 100000 nM.

In the case of `COc1cc(C(=O)O)c(Cl)cc1NS(=O)(=O)c1cnc(-c2ccc(F)cc2)s1` [Example 78], the half-inhibitory concentration (IC50) fell in the range of 500 to 1000 nM. The same measure for `COc1cc(C(=O)O)ccc1NS(=O)(=O)c1cnn(-c2ccc(F)cc2)c1` [Example 79]: 1000 to 100000 nM; for `COc1cc(C(=O)O)ccc1NS(=O)(=O)c1cnn(-c2ccc(F)cc2)c1C` [Example 80]: 1000 to 100000 nM.

As for `COc1cc(C(=O)O)ccc1NS(=O)(=O)c1cnc(-c2ccccc2)o1` [Example 81], the half-inhibitory concentration (IC50) was in the range of 100 to 500 nM. The same measure for `O=C(O)c1ccc(NS(=O)(=O)c2cnc(-c3ccc(F)cc3)s2)c2ncccc12` [Example 82]: 1000 to 100000 nM; for `O=C(O)c1cnc(NS(=O)(=O)c2cnc(-c3ccc(F)cc3)s2)nc1` [Example 83]: 1000 to 100000 nM.
